Experimental data as given in article PMC3569073 (Journal of medicinal chemistry, 2013).
Several values for one entry are separate records, joined by “and”; a condition that tells them apart may be missing. Identical values can stand only once. Like-named read-outs stand apart in the source and are kept apart here.

Legend:
[1] = tested on: 68 discrete GPCRs, ion channels and transporters; assay type: binding; conditions: 10 μM
SARS-CoV 3CLpro = SARS-CoV 3CLpro (Severe acute respiratory syndrome coronavirus, UniProt P0C6X7); assay: biochemical; assay type: biochemical; conditions: for inhibition at 100 µM: read-out: 3CLpro inhibition level
SARS 3CLpro = conditions: cited from earlier work
SARS-CoV = conditions: cited from earlier work
[2] = target: T1, 3CLpro enzyme from the human coronavirus HKU1 (Human coronavirus HKU1, UniProt P0C6X2); assay type: biochemical; conditions: 100 μM
T1 sequence (P0C6X2 3335-3637 limits assumed): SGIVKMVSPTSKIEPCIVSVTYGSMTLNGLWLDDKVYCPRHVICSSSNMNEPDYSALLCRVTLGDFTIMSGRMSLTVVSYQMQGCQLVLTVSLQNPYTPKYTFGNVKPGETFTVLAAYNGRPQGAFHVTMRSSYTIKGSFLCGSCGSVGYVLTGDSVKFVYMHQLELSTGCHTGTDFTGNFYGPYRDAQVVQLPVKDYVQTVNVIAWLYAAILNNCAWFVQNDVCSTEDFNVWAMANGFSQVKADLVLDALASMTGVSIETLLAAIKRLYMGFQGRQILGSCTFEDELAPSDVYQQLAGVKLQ

[3] = target: T2, 3CLpro enzyme from the mouse coronavirus MHV (Murine coronavirus, UniProt P0C6X9); assay type: biochemical; conditions: 100 μM
T2 sequence (P0C6X9 3334-3635 limits assumed): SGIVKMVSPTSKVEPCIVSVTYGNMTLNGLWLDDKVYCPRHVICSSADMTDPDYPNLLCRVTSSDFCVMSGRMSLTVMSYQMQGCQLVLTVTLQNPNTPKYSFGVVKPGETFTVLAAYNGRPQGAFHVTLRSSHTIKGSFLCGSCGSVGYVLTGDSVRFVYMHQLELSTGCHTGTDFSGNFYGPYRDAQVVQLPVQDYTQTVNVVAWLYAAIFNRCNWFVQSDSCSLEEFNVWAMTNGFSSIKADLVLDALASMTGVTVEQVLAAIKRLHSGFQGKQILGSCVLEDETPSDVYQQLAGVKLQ

[4] = tested on: SARS-CoV infected Vero cells; conditions: cited from earlier work

CC(C)(C)NC(=O)[C@@H](c1cccnc1)N(C(=O)c1ccco1)c1ccc(C(C)(C)C)cc1 [16-(R), (R)-N-(4-(tert-butyl)phenyl)-N-(2-(tert-butylamino)-2-oxo-1-(pyridin-3-yl)ethyl)furan-2-carboxamide]
activity in lead-profiling screen [1]: < 50%
solubility (physchem): ≤ 95 µg/mL and ≤ 219 µM

CCC(C)c1ccc(N(C(=O)c2ccco2)C(C(=O)NC2CCCC2)c2cccnc2)cc1 (stereo not shown) [Compound 14]
IC50 (SARS-CoV 3CLpro): < 10 µM

CC(C)(C)NC(=O)C(c1cccnc1)N(C(=O)c1ccco1)c1ccc(C(C)(C)C)cc1 (stereo not shown) [Compound 16]
inhibition at 100 µM (SARS-CoV 3CLpro): > 50%

CC(C)c1ccc(N(C(=O)c2ccco2)C(C(=O)NC(C)(C)C)c2cccnc2)cc1 (stereo not shown) [Compound 17, N-(2-(tert-butylamino)-2-oxo-1-(pyridin-3-yl)ethyl)-N-(4-isopropylphenyl)furan-2-carboxamide]
IC50 (SARS-CoV 3CLpro; read-out: 3CLpro IC50): < 50 µM
inhibition at 100 µM (SARS-CoV 3CLpro): > 50%

CC(C)(C)NC(=O)C(c1cccnc1)N(C(=O)c1ccco1)C1CC1 (stereo not shown) [Compound 18, N-(2-(tert-butylamino)-2-oxo-1-(pyridin-3-yl)ethyl)-N-cyclopropylfuran-2-carboxamide]
3CLpro inhibition, SAR result in words (SARS-CoV 3CLpro): deleterious for inhibition

CC(C)(C)NC(=O)C(c1cccnc1)N(C(=O)c1ccco1)c1ccc(F)cc1 (stereo not shown) [Compound 19, N-(2-(tert-butylamino)-2-oxo-1-(pyridin-3-yl)ethyl)-N-(4-fluorophenyl)furan-2-carboxamide]
3CLpro inhibition, SAR result in words (SARS-CoV 3CLpro): deleterious for inhibition

CC(C)(C)NC(=O)C(c1ccsc1)N(C(=O)c1ccco1)c1ccc(C(C)(C)C)cc1 (stereo not shown) [Compound 20, N-(4-(tert-butyl)phenyl)-N-(2-(tert-butylamino)-2-oxo-1-(thiophen-3-yl)ethyl)furan-2-carboxamide]
3CLpro inhibition, SAR result in words (SARS-CoV 3CLpro): complete loss of inhibition activity

Cc1ccc(C(=O)N(c2ccc(C(C)(C)C)cc2)C(C(=O)NC(C)(C)C)c2cccnc2)o1 (stereo not shown) [Compound 21]
3CLpro inhibition, SAR result in words (SARS-CoV 3CLpro): negatively impacted activity

Cc1ccoc1C(=O)N(c1ccc(C(C)(C)C)cc1)C(C(=O)NC(C)(C)C)c1cccnc1 (stereo not shown) [Compound 26]
3CLpro inhibition, SAR result in words (SARS-CoV 3CLpro): negatively impacted activity

CC(C)(C)NC(=O)C(c1cccnc1)N(C(=O)c1cccs1)c1ccc(C(C)(C)C)cc1 (stereo not shown) [Compound 27, N-(4-(tert-butyl)phenyl)-N-(2-(tert-butylamino)-2-oxo-1-(pyridin-3-yl)ethyl)thiophene-2-carboxamide]
3CLpro inhibition, SAR result in words (SARS-CoV 3CLpro): weakly tolerated
fold loss of 3CLpro activity relative to furan 16 (SARS-CoV 3CLpro): 10 fold

CC(C)(C)NC(=O)C(c1cccnc1)N(C(=O)c1c[nH]cn1)c1ccc(C(C)(C)C)cc1 (stereo not shown) [Compound 31, N-(4-(tert-butyl)phenyl)-N-(2-(tert-butylamino)-2-oxo-1-(pyridin-3-yl)ethyl)-1H-imidazole-4-carboxamide]
3CLpro inhibition, SAR result in words (SARS-CoV 3CLpro): nearly equipotent

CC(C)(C)NC(=O)C(c1cccnc1)N(C(=O)C1CCCO1)c1ccc(C(C)(C)C)cc1 (stereo not shown) [Compound 32]
IC50 (SARS-CoV 3CLpro): > 50 µM
fold loss of 3CLpro activity relative to furan 16 (SARS-CoV 3CLpro): > 10 fold

CC(C)(C)NC(=O)C(c1cccnc1)N(C(=O)c1ccc[nH]1)c1ccc(C(C)(C)C)cc1 (stereo not shown) [Compound 37]
3CLpro inhibition, SAR result in words (SARS-CoV 3CLpro): completely inactive

CC(C)(C)NC(=O)C(c1cccnc1)N(C(=O)c1ccc(Cl)o1)c1ccc(C(C)(C)C)cc1 (stereo not shown) [Compound 50]
3CLpro inhibition, SAR result in words (SARS-CoV 3CLpro): nearly equipotent to 16

CC(C)(C)NC(=O)C(c1cccnc1)N(C(=O)Cc1cnc[nH]1)c1ccc(C(C)(C)C)cc1 (stereo not shown) [Compound 51]
3CLpro inhibition, SAR result in words (SARS-CoV 3CLpro): deleterious for inhibition

Cn1cnc(C(=O)N(c2ccc(C(C)(C)C)cc2)C(C(=O)NC(C)(C)C)c2cccnc2)c1 (stereo not shown) [Compound 52, N-(4-(tert-butyl)phenyl)-N-(2-(tert-butylamino)-2-oxo-1-(pyridin-3-yl)ethyl)-1-methyl-1H-imidazole-4-carboxamide]
fold loss of 3CLpro activity relative to imidazole 31 (SARS-CoV 3CLpro): > 10 fold

CC(C)(C)NC(=O)C(c1ccnnc1)N(C(=O)c1ccco1)c1ccc(C(C)(C)C)cc1 (stereo not shown) [Compound 53]
3CLpro inhibition, SAR result in words (SARS-CoV 3CLpro): well tolerated

CC(C)(C)NC(=O)C(c1cnccn1)N(C(=O)c1ccco1)c1ccc(C(C)(C)C)cc1 (stereo not shown) [Compound 54]
3CLpro inhibition, SAR result in words (SARS-CoV 3CLpro): well tolerated

Cc1ccc(C(C(=O)NC(C)(C)C)N(C(=O)c2ccco2)c2ccc(C(C)(C)C)cc2)cn1 (stereo not shown) [Compound 55, N-(4-(tert-butyl)phenyl)-N-(2-(tert-butylamino)-1-(6-methylpyridin-3-yl)-2-oxoethyl)furan-2-carboxamide]
3CLpro inhibition, SAR result in words (SARS-CoV 3CLpro): not permitted

CC(C)(C)NC(=O)C(c1ccncc1)N(C(=O)c1ccco1)c1ccc(C(C)(C)C)cc1 (stereo not shown) [Compound 56]
3CLpro inhibition, SAR result in words (SARS-CoV 3CLpro): weak inhibitors

CC[C@H](NC(=O)[C@@H](NC(=O)OCc1ccccc1)[C@@H](C)OC(C)(C)C)C(=O)N[C@H](C=O)C[C@@H]1CCNC1=O [TG-0205221]
Ki (SARS 3CLpro): 0.052 µM
EC50 (SARS-CoV): 0.6 µM

CN(C)CCCSc1ccccc1NC(=O)/C=C/c1ccccc1 [cinanserin]
inhibition of SARS-CoV 3CLpro (SARS-CoV 3CLpro; 100 μM): no inhibition
inhibition of authentic SARS-CoV 3CLpro (SARS-CoV 3CLpro; 100 μM): no inhibition
inhibition of HKU1 3CLpro [2]: no inhibition
inhibition of MHV 3CLpro [3]: no inhibition
reduction of viral RNA in cell culture media [4]: 3 log
